Results: patent US9968572B2, “Clonidine and GABA compounds in a biodegradable polymer carrier” (Warsaw Orthopedic, Inc., priority 2010, dated 2018)

Key:
[1] = tested on: Sprague Dawley rats with chronic constriction injury (CCI) of the sciatic nerve; assay: Mechanical paw withdrawal (allodynia) Von Frey threshold after chronic constriction injury of the sciatic nerve; format: in vivo; conditions: rat CCI model; gabapentin 90 mg/kg subcutaneous 1 hour prior to each assessment; days 8, 15, 22 post-CCI; vs vehicle (PBS); 2-factor ANOVA, p<0.001
Method: (§1) Rats were treated with a subcutaneous human equivalent dose of 885 mcg of gabapentin 1 hour prior to testing.
(§2) Eight Sprague Dawley rats were given a chronic constriction injury (CCI) of the sciatic nerve. The CCI was induced as described by Bennett and Xie (1988). Animals were anesthetized with pentobarbital (60 mg/kg). The right common sciatic nerve was exposed by blunt dissection between the femoral biceps and quadriceps muscle and freed from adherent tissue. Four loose ligatures were placed 1 mm apart using 4-0 chromic gut absorbable sutures. Four animals received a subcutaneous injection of gabapentin (90 mg/kg) 1 hour prior to each post-CCI pain assessment (BP) and four animals received vehicle (PBS) injections. Thermal hyperalgesia paw withdrawal latency response of the injured (rt) limb was measured 2 days before the CCI and on days 7, 14, and 21 post-CCI surgery. This is considered a model of neuropathic pain. FIG. 3 is a bar graph illustration showing that Von Frey withdrawal threshold is increased by gabapentin in rats with an injury to the sciatic nerve.
Mechanical paw withdrawal (allodynia) thresholds of each animal were measured the day before the CCI and on days 8, 15, and 22. FIG. 4 is a bar graph illustration showing that thermal withdrawal latency is increased by gabapentin in rats with an injury to the sciatic nerve. This is considered a model of tactile somatic pain.

[2] = tested on: Sprague Dawley rats with chronic constriction injury (CCI) of the sciatic nerve; assay: Thermal hyperalgesia paw withdrawal latency after chronic constriction injury of the sciatic nerve; format: in vivo; conditions: rat CCI model; gabapentin 90 mg/kg subcutaneous 1 hour prior to each assessment; days 7, 14, 21 post-CCI; injured (rt) limb; vs vehicle (PBS); 2-factor ANOVA, p<0.0001
Method: as §1, §2

NCC1(CC(=O)O)CCCCC1 [gabapentin, 2-[1-(aminomethyl)cyclohexyl]acetic acid]
Von Frey threshold, expressed as a percent of baseline [1]: significantly higher | Thermal withdrawal latency, expressed as a percent of baseline [2]: significantly higher
